We go through one substance from patent US9045563B2, “CXC chemokine receptor 4 (CXCR4) antagonistic polypeptide” (priority 2007, dated 2015).

The target in one test is CXCR4 (Homo sapiens, UniProt P61073). Briefly: Fluorescent binding assay on whole living cells, CXCL12-TR competition on HEK293 EGFP-hCXCR4. Also noted: expressed in transfected cells. As for the experimental part:
FIG. 17. CXCR4 antagonistic activities of ALB derivatives. […] CXCR4 or CCR5 expressing HEK293 cells were treated with CXCR4 agonist CXCL12 (10 nM) or CCR5 agonist CCL5 (20 nM), respectively, in the absence (no ALB) or presence of indicated ALB derivatives (50 μM). Calcium responses were recorded as described. Data shown are mean values±standard deviation derived from duplicates relative to peak calcium responses after treatment with agonists only (100%). […] CXCR4 expressing HEK293 cells were treated with Texas Red labeled CXCL12 (CXCL12-Tr) in the presence or absence of ALB peptides. Real-time fluorescence monitoring of ligand-receptor interactions was carried out as described.

A further test relates to X4 tropic HIV-1 NL4-3. Conditions: read-out: IC50 ± SEM; TZM-bl cells, X4 tropic HIV-1 NL4-3, two days post infection, synthetic peptides. As for the experimental part:
HIV inhibition test were performed by seeding 4000 P4-R5 MAGI cells (P. Charneau et al., J. Mol. Biol. 241: 651, 1994) in 100 μl of DMEM (10% FCS, 100 U/ml penicillin G, and 100 μg/ml streptomycin sulfate). P4-R5 cells are stably transfected with an LTR-lacZ cassette and upon successful infection by HIV-1 will express—galactosidase in a Tat-dependent manner, which can be detected in a chemiluminescence test. On the following day, aliquots of the fractions were added. Therefor the lyophilized fractions were resuspended in 80 μl of DMEM, and 25 μl each thereof was pipetted to P4-R5 cells, incubated at 37° C. for 1 hour and subsequently infected with HIV-1 NL4—3 (1 ng of p24 antigen). Virus stocks were obtained by transient infection of 293T cells with proviral DNA by the calcium phosphate method (CalPhos™ Mammalian Transfection Kit, Clontech). Virus stocks were harvested 48 hours post transfection, filtrated and used for infection. Three days post infection, β-galactosidase activity in infected P4-R5 cells was detected using GalScreen assay (TROPIX) as recommended by the manufacturer. Briefly, supernatant was removed, 40 μl of a 1:1 dilution of PBS/GalScreen+substrate was added, followed by incubation at room temperature for 30 min. Then 30 μl of the lysates were transferred into 96 well lumiplates. Subsequently, the lumines-cence was detected as relative light units per second in a luminometer (Berthold, ORION). From all measurements, the mean β-galactosidase background activity of non-infected control cells was subtracted. % infection values for each infection were calculated relative to no peptide containing controls (100%). The enzyme activities in measurements without ALB408-423 were set at 100%, and all other values were based thereon. The final purification (7th step) was examined under exactly the same conditions in TZM-bl cells (X. Wei et al., Antimicrob. Agents Chemother. 46: 1896, 2002).
1.6 mg of fraction 31 from the 7th step in Example 1 was dissolved in 160 μl of DMEM. Subsequently, 10 μl of serial dilutions of fraction 31 containing ALB408-423 were added to 60 μl of TZM-bl cells (60 μl) and infected with 1 ng of p24 antigen HIV-1 NL4—3 in a total volume of 100 μl. Three days later, infection rates were determined in a GalScreen assay (see Example 1).
5000 TZM-bl cells were seeded in 100 μl of DMEM (10% FCS, 100 U/ml of penicillin G and 100 μg/ml of streptomycin sulfate). ALB408-423 was dissolved in PBS (10 mg/ml). One day later, 20 μl serial dilutions of ALB408-423 in PBS were added to cells and cells were subsequently infected with 0.5 ng of p24 antigen HIV-1 in a total volume of 200 μl. HIV-1 molecular clones differing in coreceptor tropism were used and generated as described (Papkalla et al., J. Virol. 76: 8455-9, 2002).
Table 1. Antiviral activity of various ALB fragments against X4 tropic HIV-1 NL4-3 infection. TZM-bl cells containing serial dilutions of synthetic peptides were infected with HIV-1 NL4-3 and infection rates were determined and calculated as described in example 1 and 2 at two days post infection. IC50 values were determined using the GraphPad Prism software package.
Various ALB408-423 derivatives containing N or C terminal deletions or amino acid substitutions (Table 1) were chemically synthesized and lyophilized peptides were dissolved in PBS. The antiviral activity was analyzed in TZM-bl cells using X4 tropic HIV-1 NL4-3 as described (example 4).

pIC50, pKd: −log10 of the molar value. Ends that are not written are not given here. Bounds are passed on as bounds.

Sequence of CXCR4 (P61073 whole entry): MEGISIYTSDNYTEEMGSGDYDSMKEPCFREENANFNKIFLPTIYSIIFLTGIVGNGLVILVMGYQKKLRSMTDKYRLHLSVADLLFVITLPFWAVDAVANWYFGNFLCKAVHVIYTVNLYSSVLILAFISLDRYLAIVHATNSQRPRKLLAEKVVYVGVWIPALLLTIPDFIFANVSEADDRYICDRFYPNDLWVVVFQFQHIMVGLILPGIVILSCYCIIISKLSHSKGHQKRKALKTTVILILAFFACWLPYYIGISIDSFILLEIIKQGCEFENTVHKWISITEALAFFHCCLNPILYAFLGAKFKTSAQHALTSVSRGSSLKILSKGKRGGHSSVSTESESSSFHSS

In general, pKd refers to the Kd on a negative log10 scale, so that one unit is a factor of ten. The term pIC50 denotes −log10 of the IC50, conventionally taken in molar units. In turn, LVRYTK [ALB408-413, LVRYTK] had a pKd on CXCR4 of less than 3.70. In the test on X4 tropic HIV-1 NL4-3, the pIC50 is less than 4.30.
